Values of other authors, collected in patent US9365837B2, “Peptide inhibitors of protein kinase C” (The Board of Trustees of the Leland Stanford Junior …, priority 2002, dated 2016).

System: Sprague-Dawley rats
Details: previously identified active in the assay

Which “activity in the capsaicin assay (positive control)” value does the source give for “EAIVKQ (fragment derived from SEQ ID NO32) [SEQ ID NO:37, positive control εPKC antagonist, excluded from the peptides of the invention]” here?
The value was “active”.
